Laboratory results: patent US20120022000A1, “USE OF A PEPTIDE IN THE TREATMENT OR PREVENTION OF METASTASIS” (UNIVERSITE DE LAUSANNE, priority 2009, published 2012)
Marks after values point to notes of the source that are not given here.

Assays:
U2OS cells [1] = test: Adhesion assay (trypsinization assay) with peptides; type: cell-based; details: for cell adherence (resistance to trypsin): U2OS cells, 8 hours (FIG. 4A)
Description: (a) U2OS cells were cultured until confluency and treated during 0 h, 1 h, 3 h, 8 h and 14 h with 13 μM TAT, 13 μM TAT-RasGAP317-326 or without treatment. The cells were then trypsinized during 5 minutes (or not trypsinized), washed with PBS and stained with GIEMSA. Four pictures were taken per plate using a Zeiss Axioplan 2 microscope equipped with a 10× objective and the number of cells per surface area was determined. Representative images are shown. The graph represents the number of cells per mm^2 (mean±95% CI of 3 independent experiments). Scale bar=100 μm. (b) Trypsinization assay on cancerous cell lines (U2OS, HeLa, 4T1, HCT116, SAOS) and non-cancerous cell lines (HEK293T and HaCaT). Cells were treated and analyzed as in panel (a). Values for control and TAT treatments are shown literally as they were too low to be seen on the graphs. (c) Reversibility of the TAT-RasGAP317-326 induced adhesion. Confluent U2OS cells were treated during 24 h with 13 μM TAT, 13 μM TAT-RasGAP317-326 or not treated. The cells were then washed and incubated in culture medium without peptides for the indicated periods of time. Cells were analyzed as in panel (a).
(§1) (a) RasGAP317-326 without cell-permeation sequences is not able to render cells resistant to trypsin. 300,000 U2OS cells were cultured overnight in 3.5 cm plates and then treated during 8 hours with the indicated peptides (the concentration of each peptide was 13 μM). The cells were then subjected to a trypsinization assay. (b) 2×10^6 HEK293T cells were cultured overnight in 10 cm plates and transfected with empty vector (pcDNA3) or vectors encoding HA-tagged versions of fragment N2 or the 317-326 sequence of RasGAP. One day later, the cells were subjected to a trypsinization test. Results in (a) and (b) correspond to the number of cells per mm2 (mean±95% CI of 3 independent experiments). Some values are shown literally as they were too low to be seen on the graphs.
5×10^5 cells were grown overnight and then incubated with peptides or transfected (see the figures for the specific conditions used). The treated cells were washed with phosphate buffered saline (PBS) and then incubated with trypsin-EDTA solution (Sigma; catalog no: T3924; […]) during 5 minutes. The plates were gently hand-rocked 2 and 4 minute after trypsin addition. Detached cells were removed with a PBS wash and the remaining attached cells were dried, incubated in ethanol during 10 minutes, dried again, and finally stained with GIEMSA (Invitrogen) for 45 minutes. Four and six phase contrast pictures were taken (Zeiss Axioplan, 10× objective) for 3.5 cm-plates and 10 cm-plates, respectively. The number of cells per mm2 was then determined.

[2] = system: U2OS, HeLa, HCT116 and HaCaT; test: Wound-healing experiment; type: cell-based; details: 13 μM peptide, HCT116, HaCaT (FIG. 2)
Description: Cells were cultured until confluency and a wound in the cell layer was done with a yellow tip. The cells were then left untreated or incubated 24 hours with 13 μM of TAT or TAT-RasGAP317-326 peptides. Pictures were taken just after wounding (0 hour) and at the indicated times. Results correspond to the width of the wound (mean±95% CI of 4 independent experiments). Asterisks denote significant differences between the control and the other conditions at a given time point (t-test after Bonferroni correction). Bar=100 μm. Cells were grown until confluency and a wound in the cell layer was done with a yellow tip. The cells were washed once with PBS to remove debris and then left untreated or incubated 24 hours and 48 hours with 13 μM of TAT or TAT-RasGAP317-326 peptides (in DMEM+10% FBS). Pictures were taken just after wounding (0 h) and at the indicated times. The wound widths were measured as described earlier (Bulat et al., 2009).

U2OS cells [3] = test: Proliferation assay; type: cell-based; details: 13 μM (FIG. 3)
Description: 30,000 U2OS cells were seeded in 3.5 cm-plates. The cell number in the plates were then determined 24 and 48 hours later as described in FIG. 1, panel (a). The graph represents the number of cells per mm2 (mean±95% CI of 3 independent experiments). No significant difference between the growth curves could be detected (repeated measures ANOVA). 30,000 U2OS cells were seeded in 3.5 cm plates and cultured overnight. The cells were either treated with 13 μM TAT, 13 μM TAT-RasGAP317-326 or left untreated. Pictures were taken after 0 h, 24 h and 72 hours and cells were counted. The number of cells was then adjusted per mm2.

4T1-luc2 cells = test: In vivo metastases model (orthotopic mammary fatpad 4T1-luc2 tumor); set-up: species or system nude mice
Description: 100,000 4T1-luc2 cells were injected orthotopically into the mammary fatpad of nude mice. Four groups of eight nude mice were then treated with or without 0.16 mg TAT-RasGAP317-326 per kg of mouse on the first, third and fifth day of the week during 28 days. The tumor volumes were measured with a caliper at the indicated time points and were calculated according to the formula described in the “MATERIAL AND METHODS” section. A repeated measure ANOVA was performed and no differences were found between the two groups.
Nude mice were injected into the mammary fatpads with 100,000 murine mammary cancer 4T1-luc2 cells that constitutively express the firefly luciferase. For the injection, the mouse skin was incised in the pelvic area to reach the fatpads, and the wounds were closed after injection with surgery hooks. The cells were injected in 100 μl Matrigel (BD Biosciences, 20% in PBS). Tumor volumes were quantified as follow: The tumor width and length were measured with a caliper and the tumor volume was calculated according to the formula tumor volume [mm3]=(12*L)*π/6, where 1 is the smallest measure between the width and the length (in mm), and L the longest (in mm) In order to quantify metastases, the mice were injected i.p. with 200 μl D-Luciferin Firefly (15 mg/ml in PBS) in PBS, Biosynth, No. L-8220) and luminescence was measured 10 minutes afterwards with an IVIS Lumina 2 apparatus (Xenogen). Metastases were assessed at the indicated time points in vivo and at the last day (28 days after tumor injection) ex vivo for the following organs: lung, liver and axillary and brachial lymph nodes. For the ex vivo measurements, the mice were injected with luciferin as described above, and sacrificed 10 minutes later to excise organs. The light emitted by the organs was measured in a Luciferin bath (150 μg/ml D-Luciferin Firefly in 2 ml PBS per organ). Luminescence is presented as the number of photons emitted per second (p/s).
28 days after cancer cells injection, the same mice than those in FIG. 5 were subjected to ex vivo metastases luminescence measurements. The lung, liver, axillary and brachial lymph node (LN) metastases were quantified by luminescence after luciferine i.p. injection. Organs emitting light were considered as bearing metastases. The asterisk denotes a significant difference against the control treatment (0 mg/kg TAT-RasGAP317-326) (p=0.0238 after an Fisher's Exact Test).

U2OS cells [4] = test: Immuno-cytochemistry of actin and focal adhesions (phospho-FAK); type: cell-based; details: 13 μM over-night (FIG. 6)
Description: FIG. 6: Actin and focal adhesion changes in TAT-RasGAP317-326-treated cells. 100,000 U2OS cells were cultured on coverslips for 24 hours and then treated with 13 μM TAT-RasGAP317-326, 13 μM TAT or left untreated (control) over-night. The cells were then fixed with 2% PFA, and peinieabilized with PBS Triton-X100 0.2%. The nuclei were stained with Hoechst 33342 and actin with Alexa Fluor 488 phalloidin. Focal adhesions were stained with an anti-phospho Tyr397 FAK. Representative images are shown.
100,000 U2OS cells were grown on coverslips overnight, and then treated as described in the figures. The cells were then fixed and the nuclei were stained in PBS containing 2% paraformaldehyde (weight/vol) (Acros Organics, catalog no: 30525-89-4) and 10 μg/ml Hoechst 33342 (Molecular Probe) for 15 minutes. The following steps were performed at room temperature in the absence of light. The cells were washed twice in PBS, permeabilized 10 minutes in PBS, 0.2% Triton X-100, washed twice in PBS, neutralized 15 minutes in DMEM, 10% FBS, and washed twice in PBS. The coverslips were then incubated 20 minutes in PBS 1.65 μM Alexa Fluor 488 phalloidin (Invitrogen, A12379). After a rapid wash in PBS, they were incubated with a polyclonal rabbit anti-phospho-FAK (tyrosine 397) primary antibody (1:50 dilution in DMEM, 10% FBS; Cell Signaling, catalog no: 3283) for 1 hour. After a rapid wash in PBS, the coverslips were incubated 1 hour with a donkey CyTM-anti-rabbit secondary antibody (1:500 dilution in DMEM, 10% FBS; Jackson ImmunoResearch, no. 711-165-152). The slides were finally washed twice in PBS and mounted in Vectashield mounting medium (Vector laboratories Inc.). Images were taken with a Zeiss Axioplan 2 imaging microscope.

trypsin = molecular target: T1, trypsin (Sus scrofa, UniProt P00761); test: Trypsin pre-incubated with peptide, cell detachment; details: trypsin pre-incubated one hour with peptide; data not shown
T1 construct: purchased Sigma T3924
Description: TAT-RasGAP317-326 could increase adherence and block migration by acting in the cellular environment or at the surface of cells. Alternatively, these effects could be induced only once the peptide has entered cells. The following evidence favors the second possibility.

[5] = peptide by itself; Michod et al., 2004; 2009; cited from earlier work
HEK293T cells = test: Adhesion assay (trypsinization test) after transfection; type: cell-based; details: HEK293T cells transfected with HA-tagged constructs, one day (FIG. 4B)
Description: as §1
2×10^6 HEK293T cells were cultured overnight in 10 cm-culture plates and transfected with 18 μg of the plasmid of interest and 2 μg of pEGFP-C1 (a green fluorescent protein-encoding plasmid from Clontech) using the calcium-phosphate method (Jordan et al., 1996). Briefly, plasmids were diluted in 450 μl water and mixed with 50 μl CaCl2 2.5M during 30 minutes. […]
5×10^5 cells were grown overnight and then incubated with peptides or transfected (see the figures for the specific conditions used). […] The number of cells per mm2 was then determined.

[6] = 0.160 mg/kg, 28 days after cell injection, ex vivo luminescence

T1 sequence (P00761 9-231): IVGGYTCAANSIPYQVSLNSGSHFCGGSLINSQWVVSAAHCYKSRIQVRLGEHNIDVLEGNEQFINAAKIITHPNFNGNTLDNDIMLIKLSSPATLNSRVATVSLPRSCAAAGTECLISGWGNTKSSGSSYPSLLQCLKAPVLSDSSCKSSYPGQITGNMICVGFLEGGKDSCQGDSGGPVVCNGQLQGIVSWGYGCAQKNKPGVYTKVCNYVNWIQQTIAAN

For “WMWVTNLRTD (listed as Homo sapiens) [RasGAP317-326]”, the “cell adherence (resistance to trypsin)” value (U2OS cells [1]; 13 μM peptide) was “unable to increase cell adherence”.

In the case of “GRKKRRQRRRGGWMWVTNLRTD [TAT-RasGAP317-326, RasGAP-derived peptide conjugated to HIV-TAT48-57 through two glycine residues]”, the “ability to increase cell adherence when transcription or translation is blocked” value (U2OS cells [1]; 1 μg/ml actinomycin D or 30 μg/ml cycloheximide, data not shown) is reported as “None of the drugs affected the ability”, the cell adhesion (U2OS cells [1]; 13 μM peptide, trypsinization 5 minutes, U2OS and other cell lines (FIG. 1)) is reported as “induces cell adhesion” and the “ability of the cells to fill wounds (cell migration)” value [2] is reported as “blocked the ability of the cells to fill wounds”. The cell population growth (U2OS cells [3]) was “does not modulate cell population growth”, the primary tumor growth (4T1-luc2 cells; 0.16 mg per kg on first, third and fifth day of the week during 28 days, nude mice (FIG. 5)) was “does not affect primary tumor growth” and the “mice with metastases in the indicated organs vs total number of mice: Liver” value (4T1-luc2 cells; [6]) was 3/8. The “mice with metastases in the indicated organs vs total number of mice: Lung” value (4T1-luc2 cells; [6]) was 2/8*, the “mice with metastases in the indicated organs vs total number of mice: LN” value (4T1-luc2 cells; 0.160 mg/kg, 28 days after cell injection, ex vivo luminescence, axillary and brachial lymph nodes) was 3/8 and the “formation of metastases in other organs” value (4T1-luc2 cells; 28 days, liver, lymph nodes) was “apparently no effect”. For the same molecule, the lung metastases (4T1-luc2 cells; 28 days, p=0.024, Fisher's Exact Test) was “significant decrease in lung metastases”, the “actin and focal adhesion localization” value (U2OS cells [4]) was “major changes in actin and focal adhesion localization” and the “cortical actin stress fibers” value (U2OS cells [4]) was “strong increase”. The “location of focal adhesions” value (U2OS cells [4]) was “mainly found at the cell's periphery”, the ventral stress fibers (U2OS cells [4]) was “almost completely disappeared” and the “trypsin inhibitory effect (ability of trypsin to detach cells)” value (trypsin) was “did not decrease the ability of trypsin to detach cells”. The cell survival [5] was “does not, by itself, affect cell survival”.

With “RRRRRRRRRGGWMWVTNLRTD [R9—RasGAP317-326, RasGAP317-326 conjugated to a 9 arginine peptide]” the “cell adherence (resistance to trypsin)” value (U2OS cells [1]; 13 μM peptide) was “functions as a cell adherence promoting agent”.

With “GRKKRRQRRR [TAT, cell-permeable carrier peptide used as control, reference compound]” the “actin and focal adhesion localization” value (U2OS cells [4]) was “did not exhibit any difference compared to untreated cells”.

B1: RasGAP Fragment N2: HA-tagged human RasGAP amino acid 158-455 sequence, expressed from plasmid HA-N2.dn3 (protein, UniProt P20936 158-455, looked up, fragment)
chain: SLDGPEYEEEEVAIPLTAPPTNQWYHGKLDRTIAEERLRQAGKSGSYLIRESDRRPGSFVLSFLSQMNVVNHFRIIAMCGDYYIGGRRFSSLSDLIGYYSHVSCLLKGEKLLYPVAPPEPVEDRRRVRAILPYTKVPDTDEISFLKGDMFIVHNELEDGWMWVTNLRTDEQGLIVEDLVEEVGREEDPHEGKIWFHGKISKQEAYNLLMTVGQVCSFLVRPSDNTPGDYSLYFRTNENIQRFKICPTPNNQFMMGGRYYNSIGDIIDHYRKEQIVEGYYLKEPVPMQDQEQVLNDTVD
modifications: HA tag
For B1, the “cell adherence after transfection” value (HEK293T cells) was “Increases Cell Adherence”.
